Experimental data: patent US12157741B2, “Macrocyclic inhibitors of DYRK1A” (DANA-FARBER CANCER INSTITUTE, INC., priority 2018, dated 2024)
Where two headings read alike, the source gives them in different places.

Columns and labels:
Assay type in all cases: binding
various enzymes [1] = molecular target: various enzymes (Homo sapiens, UniProt O60674); details: compound 1 uM
Protocol: (§1) Ambit profiling was conducted in accordance with the manufacturer's instructions.

various enzymes [2] = molecular target: various enzymes (Homo sapiens, UniProt O75716); details: compound 1 uM
Protocol: as §1

various enzymes [3] = molecular target: various enzymes (Homo sapiens, UniProt P00533); details: compound 1 uM
Protocol: as §1

various enzymes [4] = molecular target: various enzymes (Homo sapiens, UniProt P00533, G719S)
Protocol: as §1

various enzymes [5] = molecular target: various enzymes (Homo sapiens, UniProt P07949); details: compound 1 uM
Sequence of various enzymes (Homo sapiens, UniProt P07949) (P07949 29-1114): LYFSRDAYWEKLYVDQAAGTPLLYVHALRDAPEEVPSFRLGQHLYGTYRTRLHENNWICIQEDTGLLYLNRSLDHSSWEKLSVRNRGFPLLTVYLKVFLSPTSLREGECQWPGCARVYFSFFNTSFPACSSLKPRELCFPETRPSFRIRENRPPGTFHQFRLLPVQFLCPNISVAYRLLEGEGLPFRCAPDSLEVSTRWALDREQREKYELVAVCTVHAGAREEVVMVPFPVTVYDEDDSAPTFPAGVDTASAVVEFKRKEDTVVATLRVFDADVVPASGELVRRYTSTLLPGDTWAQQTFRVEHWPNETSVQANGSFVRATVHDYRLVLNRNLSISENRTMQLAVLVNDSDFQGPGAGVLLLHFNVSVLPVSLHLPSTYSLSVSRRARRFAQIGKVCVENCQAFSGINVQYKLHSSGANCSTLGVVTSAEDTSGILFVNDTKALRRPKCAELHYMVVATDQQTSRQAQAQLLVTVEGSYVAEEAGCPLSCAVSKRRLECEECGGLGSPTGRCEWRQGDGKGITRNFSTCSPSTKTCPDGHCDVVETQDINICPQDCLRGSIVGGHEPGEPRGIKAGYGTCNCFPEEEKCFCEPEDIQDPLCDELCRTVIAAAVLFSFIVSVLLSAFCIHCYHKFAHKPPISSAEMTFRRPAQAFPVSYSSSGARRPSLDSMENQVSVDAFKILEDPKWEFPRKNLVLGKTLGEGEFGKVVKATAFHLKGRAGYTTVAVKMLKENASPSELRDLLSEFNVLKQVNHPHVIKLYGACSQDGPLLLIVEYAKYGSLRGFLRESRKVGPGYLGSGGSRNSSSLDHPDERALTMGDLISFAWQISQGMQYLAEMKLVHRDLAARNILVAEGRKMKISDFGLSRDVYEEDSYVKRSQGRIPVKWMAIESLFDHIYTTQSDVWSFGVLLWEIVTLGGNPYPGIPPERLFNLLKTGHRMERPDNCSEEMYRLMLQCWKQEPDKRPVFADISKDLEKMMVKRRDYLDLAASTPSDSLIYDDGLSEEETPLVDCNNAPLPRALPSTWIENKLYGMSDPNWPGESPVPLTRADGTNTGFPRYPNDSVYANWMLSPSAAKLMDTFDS
Protocol: as §1

various enzymes [6] = molecular target: various enzymes (Homo sapiens, UniProt P08581); details: compound 1 uM
Protocol: as §1

various enzymes [7] = molecular target: various enzymes (Homo sapiens, UniProt P10721, V559D/V654A)
Protocol: as §1

various enzymes [8] = molecular target: various enzymes (Homo sapiens, UniProt P14616); details: compound 1 uM
Protocol: as §1

various enzymes [9] = molecular target: various enzymes (Homo sapiens, UniProt P19525); details: compound 1 uM
Protocol: as §1

various enzymes [10] = molecular target: various enzymes (Homo sapiens, UniProt P21127); details: compound 1 uM
Sequence of various enzymes (Homo sapiens, UniProt P21127) (P21127 whole entry): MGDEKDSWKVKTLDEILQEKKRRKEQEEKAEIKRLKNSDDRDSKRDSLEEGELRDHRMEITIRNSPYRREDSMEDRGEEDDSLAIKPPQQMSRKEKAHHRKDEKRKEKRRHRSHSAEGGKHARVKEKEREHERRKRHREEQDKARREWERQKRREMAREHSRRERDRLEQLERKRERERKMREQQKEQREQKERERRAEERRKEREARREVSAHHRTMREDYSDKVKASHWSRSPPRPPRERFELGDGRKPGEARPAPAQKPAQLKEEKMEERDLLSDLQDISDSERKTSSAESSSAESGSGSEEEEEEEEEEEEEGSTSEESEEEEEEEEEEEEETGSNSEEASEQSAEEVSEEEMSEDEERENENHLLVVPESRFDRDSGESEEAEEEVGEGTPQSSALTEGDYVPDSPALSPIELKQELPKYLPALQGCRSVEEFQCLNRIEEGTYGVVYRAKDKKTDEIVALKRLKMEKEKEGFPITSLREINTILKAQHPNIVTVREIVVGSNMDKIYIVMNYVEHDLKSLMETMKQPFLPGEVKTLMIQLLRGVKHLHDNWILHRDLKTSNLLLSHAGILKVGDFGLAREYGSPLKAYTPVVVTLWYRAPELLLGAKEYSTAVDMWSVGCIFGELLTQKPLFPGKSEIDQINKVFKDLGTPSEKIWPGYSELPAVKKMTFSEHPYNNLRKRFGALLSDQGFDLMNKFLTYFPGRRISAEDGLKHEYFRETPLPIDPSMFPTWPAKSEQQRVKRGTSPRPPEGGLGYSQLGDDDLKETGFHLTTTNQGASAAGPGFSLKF
Protocol: as §1

various enzymes [11] = molecular target: various enzymes (Homo sapiens, UniProt P22607); details: compound 1 uM
Protocol: as §1

various enzymes [12] = molecular target: T1, various enzymes (Homo sapiens, UniProt P36888); details: compound 1 uM
T1 sequence (P36888 27-993): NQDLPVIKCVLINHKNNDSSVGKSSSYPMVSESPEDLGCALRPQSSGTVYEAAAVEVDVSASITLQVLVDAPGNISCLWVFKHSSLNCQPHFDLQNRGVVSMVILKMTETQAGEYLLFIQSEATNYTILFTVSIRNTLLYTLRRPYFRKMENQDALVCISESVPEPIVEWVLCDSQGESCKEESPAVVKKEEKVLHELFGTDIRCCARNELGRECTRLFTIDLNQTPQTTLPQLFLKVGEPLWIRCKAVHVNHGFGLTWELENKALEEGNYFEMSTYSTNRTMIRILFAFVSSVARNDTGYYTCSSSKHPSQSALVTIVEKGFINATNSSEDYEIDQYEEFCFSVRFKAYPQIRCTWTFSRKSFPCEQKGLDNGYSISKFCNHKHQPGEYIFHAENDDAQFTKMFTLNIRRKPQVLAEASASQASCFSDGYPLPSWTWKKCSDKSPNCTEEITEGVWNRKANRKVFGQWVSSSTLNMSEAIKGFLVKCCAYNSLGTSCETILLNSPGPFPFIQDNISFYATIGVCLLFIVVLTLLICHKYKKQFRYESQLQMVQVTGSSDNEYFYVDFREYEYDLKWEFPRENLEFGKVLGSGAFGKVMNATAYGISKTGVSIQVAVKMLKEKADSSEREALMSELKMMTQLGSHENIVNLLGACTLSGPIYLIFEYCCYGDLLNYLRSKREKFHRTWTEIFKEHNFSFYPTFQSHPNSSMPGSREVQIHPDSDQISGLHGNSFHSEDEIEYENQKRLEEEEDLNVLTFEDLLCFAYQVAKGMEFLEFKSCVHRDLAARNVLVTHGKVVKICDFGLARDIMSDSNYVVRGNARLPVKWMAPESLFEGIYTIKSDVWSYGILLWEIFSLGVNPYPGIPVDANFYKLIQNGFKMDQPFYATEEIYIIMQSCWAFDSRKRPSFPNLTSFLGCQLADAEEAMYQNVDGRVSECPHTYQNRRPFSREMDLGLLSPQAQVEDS
Protocol: as §1

various enzymes [13] = molecular target: various enzymes (Homo sapiens, UniProt P36894); details: compound 1 uM
Sequence of various enzymes (Homo sapiens, UniProt P36894) (P36894 24-532): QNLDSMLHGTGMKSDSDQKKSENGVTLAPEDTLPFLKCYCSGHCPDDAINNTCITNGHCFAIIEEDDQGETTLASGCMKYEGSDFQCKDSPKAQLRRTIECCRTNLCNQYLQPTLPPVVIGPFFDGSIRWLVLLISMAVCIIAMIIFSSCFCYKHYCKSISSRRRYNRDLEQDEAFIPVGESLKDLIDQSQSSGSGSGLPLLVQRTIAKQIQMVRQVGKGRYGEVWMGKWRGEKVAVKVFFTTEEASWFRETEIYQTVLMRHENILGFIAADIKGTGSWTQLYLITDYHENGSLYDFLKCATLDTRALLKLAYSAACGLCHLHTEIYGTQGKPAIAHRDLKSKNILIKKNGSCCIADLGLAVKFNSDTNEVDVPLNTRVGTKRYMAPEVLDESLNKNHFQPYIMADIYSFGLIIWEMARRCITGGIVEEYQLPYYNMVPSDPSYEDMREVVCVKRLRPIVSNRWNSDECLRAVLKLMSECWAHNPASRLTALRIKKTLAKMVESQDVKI
Protocol: as §1

various enzymes [14] = molecular target: various enzymes (Homo sapiens, UniProt P42345); details: compound 1 uM
Protocol: as §1

various enzymes [15] = molecular target: various enzymes (Homo sapiens, UniProt P48729); details: compound 1 uM
Protocol: as §1

various enzymes [16] = molecular target: various enzymes (Homo sapiens, UniProt P50613); details: compound 1 uM
Protocol: as §1

various enzymes [17] = molecular target: various enzymes (Homo sapiens, UniProt Q00537); details: compound 1 uM
Protocol: as §1

various enzymes [18] = molecular target: various enzymes (Homo sapiens, UniProt Q02779); details: compound 1 uM
Sequence of various enzymes (Homo sapiens, UniProt Q02779) (Q02779 whole entry): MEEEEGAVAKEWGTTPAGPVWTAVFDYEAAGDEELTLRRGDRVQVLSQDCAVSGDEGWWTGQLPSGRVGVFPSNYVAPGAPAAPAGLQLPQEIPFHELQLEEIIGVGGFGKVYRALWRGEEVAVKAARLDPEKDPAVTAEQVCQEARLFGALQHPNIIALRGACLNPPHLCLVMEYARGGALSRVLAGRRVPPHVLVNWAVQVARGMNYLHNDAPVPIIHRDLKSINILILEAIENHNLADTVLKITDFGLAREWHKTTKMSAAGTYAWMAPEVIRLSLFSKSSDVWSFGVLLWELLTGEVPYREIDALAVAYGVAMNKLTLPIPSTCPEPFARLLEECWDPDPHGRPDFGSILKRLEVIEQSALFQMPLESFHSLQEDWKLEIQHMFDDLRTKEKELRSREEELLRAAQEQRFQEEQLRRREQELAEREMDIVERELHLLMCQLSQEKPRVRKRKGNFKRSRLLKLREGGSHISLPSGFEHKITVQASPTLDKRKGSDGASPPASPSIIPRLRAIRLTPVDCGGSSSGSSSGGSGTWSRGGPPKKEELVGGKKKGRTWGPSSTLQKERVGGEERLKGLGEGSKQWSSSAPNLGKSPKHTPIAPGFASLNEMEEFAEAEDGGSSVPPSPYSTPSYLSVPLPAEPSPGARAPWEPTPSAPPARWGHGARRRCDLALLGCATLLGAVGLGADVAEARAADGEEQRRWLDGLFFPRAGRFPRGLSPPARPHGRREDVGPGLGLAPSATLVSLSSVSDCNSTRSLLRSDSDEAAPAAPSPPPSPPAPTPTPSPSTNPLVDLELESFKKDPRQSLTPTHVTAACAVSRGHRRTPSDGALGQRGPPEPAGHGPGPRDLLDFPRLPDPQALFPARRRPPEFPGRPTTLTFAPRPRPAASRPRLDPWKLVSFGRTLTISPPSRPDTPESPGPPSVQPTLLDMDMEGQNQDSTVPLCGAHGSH
Protocol: as §1

various enzymes [19] = molecular target: various enzymes (Homo sapiens, UniProt Q13188); details: compound 1 uM
Protocol: as §1

various enzymes [20] = molecular target: various enzymes (Homo sapiens, UniProt Q13705); details: compound 1 uM
Protocol: as §1

various enzymes [21] = molecular target: various enzymes (Homo sapiens, UniProt Q14680); details: compound 1 uM
Protocol: as §1

various enzymes [22] = molecular target: various enzymes (Homo sapiens, UniProt Q15759); details: compound 1 uM
Sequence of various enzymes (Homo sapiens, UniProt Q15759) (Q15759 whole entry): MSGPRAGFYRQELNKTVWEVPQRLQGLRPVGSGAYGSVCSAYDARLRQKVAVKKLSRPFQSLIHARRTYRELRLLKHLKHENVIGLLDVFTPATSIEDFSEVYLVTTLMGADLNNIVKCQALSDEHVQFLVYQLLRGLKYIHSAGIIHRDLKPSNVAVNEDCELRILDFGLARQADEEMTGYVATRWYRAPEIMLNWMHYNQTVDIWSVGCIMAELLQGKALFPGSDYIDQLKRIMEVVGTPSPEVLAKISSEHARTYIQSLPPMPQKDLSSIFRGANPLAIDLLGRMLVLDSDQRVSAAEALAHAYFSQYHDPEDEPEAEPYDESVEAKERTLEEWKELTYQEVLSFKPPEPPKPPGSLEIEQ
Protocol: as §1

various enzymes [23] = molecular target: various enzymes (Homo sapiens, UniProt Q6P3R8); details: compound 1 uM
Sequence of various enzymes (Homo sapiens, UniProt Q6P3R8) (Q6P3R8 whole entry): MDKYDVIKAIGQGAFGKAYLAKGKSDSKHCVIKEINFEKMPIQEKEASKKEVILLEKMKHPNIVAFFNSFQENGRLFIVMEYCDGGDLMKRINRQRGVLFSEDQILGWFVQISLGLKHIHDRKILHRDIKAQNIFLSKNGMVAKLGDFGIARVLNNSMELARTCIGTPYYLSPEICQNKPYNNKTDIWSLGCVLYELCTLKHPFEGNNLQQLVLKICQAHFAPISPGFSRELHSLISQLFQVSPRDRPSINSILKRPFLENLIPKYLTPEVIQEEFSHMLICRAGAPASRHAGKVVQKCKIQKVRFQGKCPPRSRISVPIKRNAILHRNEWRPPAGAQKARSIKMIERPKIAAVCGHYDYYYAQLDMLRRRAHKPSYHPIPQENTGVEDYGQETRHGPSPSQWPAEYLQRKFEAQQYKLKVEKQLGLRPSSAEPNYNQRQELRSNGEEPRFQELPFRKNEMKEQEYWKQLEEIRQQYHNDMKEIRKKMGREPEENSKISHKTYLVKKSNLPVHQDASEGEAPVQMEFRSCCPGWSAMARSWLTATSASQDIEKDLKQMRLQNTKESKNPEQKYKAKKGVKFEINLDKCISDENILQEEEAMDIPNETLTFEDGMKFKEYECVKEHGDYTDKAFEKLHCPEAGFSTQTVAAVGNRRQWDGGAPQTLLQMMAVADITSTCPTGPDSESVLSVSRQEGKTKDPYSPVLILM
Protocol: as §1

various enzymes [24] = molecular target: various enzymes (Homo sapiens, UniProt Q86Z02); details: compound 1 uM
Protocol: as §1

various enzymes [25] = molecular target: various enzymes (Homo sapiens, UniProt Q8NG66); details: compound 1 uM
Protocol: as §1

various enzymes [26] = molecular target: various enzymes (Homo sapiens, UniProt Q99755); details: compound 1 uM
Protocol: as §1

various enzymes [27] = molecular target: various enzymes (Homo sapiens, UniProt Q9H0K1); details: compound 1 uM
Protocol: as §1

various enzymes [28] = molecular target: various enzymes (Homo sapiens, UniProt Q9UM73); details: compound 1 uM
Protocol: as §1

various enzymes [29] = molecular target: various enzymes (Homo sapiens, UniProt Q9UPZ9); details: compound 1 uM
Sequence of various enzymes (Homo sapiens, UniProt Q9UPZ9) (Q9UPZ9 whole entry): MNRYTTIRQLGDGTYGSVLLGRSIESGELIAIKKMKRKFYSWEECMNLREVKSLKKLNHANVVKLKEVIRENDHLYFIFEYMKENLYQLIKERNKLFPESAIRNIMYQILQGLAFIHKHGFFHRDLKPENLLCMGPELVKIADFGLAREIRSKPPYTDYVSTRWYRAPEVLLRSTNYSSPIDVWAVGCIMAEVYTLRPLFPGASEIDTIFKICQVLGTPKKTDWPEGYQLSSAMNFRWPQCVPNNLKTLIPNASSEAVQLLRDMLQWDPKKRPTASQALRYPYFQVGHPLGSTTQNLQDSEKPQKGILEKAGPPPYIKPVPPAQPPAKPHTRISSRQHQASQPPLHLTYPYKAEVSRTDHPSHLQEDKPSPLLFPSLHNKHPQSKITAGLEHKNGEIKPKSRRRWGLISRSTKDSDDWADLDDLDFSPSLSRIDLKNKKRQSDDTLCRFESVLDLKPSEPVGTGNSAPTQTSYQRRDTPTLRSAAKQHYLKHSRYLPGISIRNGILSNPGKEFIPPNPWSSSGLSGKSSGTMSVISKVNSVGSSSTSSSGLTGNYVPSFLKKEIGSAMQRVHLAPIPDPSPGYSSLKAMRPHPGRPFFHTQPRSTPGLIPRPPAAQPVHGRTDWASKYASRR
Protocol: as §1

various enzymes [30] = molecular target: various enzymes (Homo sapiens, UniProt Q9Y2H1); details: compound 1 uM
Protocol: as §1

various enzymes [31] = molecular target: various enzymes (Mycobacterium tuberculosis, UniProt P9WI81); details: compound 1 uM
Protocol: as §1

SMILES	Ambit profiling: JAK2(JH1domain-catalytic) (various enzymes [1])	Ambit profiling: STK16 (various enzymes [2])	Ambit profiling: EGFR (various enzymes [3])	Ambit profiling: RET (various enzymes [5])	Ambit profiling: MET (various enzymes [6])	Ambit profiling: INSRR (various enzymes [8])	Ambit profiling: PRKR (various enzymes [9])	Ambit profiling: CDC2L1 (various enzymes [10])	Ambit profiling: FGFR3 (various enzymes [11])	Ambit profiling: FLT3 (various enzymes [12])	Ambit profiling: FLT3-autoinhibited (various enzymes [12])	Ambit profiling: BMPR1A (various enzymes [13])	Ambit profiling: MTOR (various enzymes [14])	Ambit profiling: CSNK1A1 (various enzymes [15])	Ambit profiling: CDK7 (various enzymes [16])	Ambit profiling: PCTK2 (various enzymes [17])	Ambit profiling: MLK2 (various enzymes [18])	Ambit profiling: MST2 (various enzymes [19])	Ambit profiling: ACVR2B (various enzymes [20])	Ambit profiling: MELK (various enzymes [21])	further results
CC(C)N1Cc2nn(C)cc2-c2cnc3[nH]cc(c3c2)-c2cn(nc2C(F)(F)F)CCCC1=O [Compound 45, (Z)-5-isopropyl-31-methyl-13-(trifluoromethyl)-11H,21H,31H-5-aza-2(3,5)-pyrrolo[2,3-b]pyridina-1(4,1),3(4,3)-dipyrazolacyclononaphan-6-one]	4.9	1.9	29	0.15	11	51	71	100	5.4	0	21	97	69	78	13	19	36	0	79	0.25	Ambit profiling: EGFR(G719S) (various enzymes [4]; compound 1 uM): 41; Ambit profiling: KIT(V559D, V654A) (various enzymes [7]; compound 1 uM): 100; Ambit profiling: p38-beta (various enzymes [22]): 100; Ambit profiling: NEK5 (various enzymes [23]): 100; Ambit profiling: HIPK1 (various enzymes [24]): 6.5; Ambit profiling: NEK11 (various enzymes [25]): 100; Ambit profiling: PIP5K1A (various enzymes [26]): 27; Ambit profiling: SIK2 (various enzymes [27]): 27; Ambit profiling: ALK (various enzymes [28]): 18; Ambit profiling: ICK (various enzymes [29]): 0.95; Ambit profiling: NDR2 (various enzymes [30]): 92; Ambit profiling: PKNB(M. tuberculosis) (various enzymes [31]): 7
COc1c2c(nn1C)CN(C(C)C)C(=O)CCCn1cc(c(C(F)(F)F)n1)-c1c[nH]c3ncc-2cc13 [Compound 50, (Z)-5-isopropyl-35-methoxy-31-methyl-13-(trifluoromethyl)-11H,21H,31H-5-aza-2(3,5)-pyrrolo[2,3-b]pyridina-1(4,1),3(4,3)-dipyrazolacyclononaphan-6-one]	29	12	27	0.1	3.8	56	84	73	7.6	1.1	6.4	88	98	74	6	56	60	3.1	92	11	Ambit profiling: EGFR(G719S) (various enzymes [4]): 41; Ambit profiling: KIT(V559D, V654A) (various enzymes [7]): 70; Ambit profiling: p38-beta (various enzymes [22]): 83; Ambit profiling: NEK5 (various enzymes [23]): 64; Ambit profiling: HIPK1 (various enzymes [24]): 13; Ambit profiling: NEK11 (various enzymes [25]): 94; Ambit profiling: PIP5K1A (various enzymes [26]): 19; Ambit profiling: SIK2 (various enzymes [27]): 32; Ambit profiling: ALK (various enzymes [28]): 21; Ambit profiling: ICK (various enzymes [29]): 12; Ambit profiling: NDR2 (various enzymes [30]): 78; Ambit profiling: PKNB(M. tuberculosis) (various enzymes [31]): 36
